In the supplement of paper PMC12137928 one finds IC50 cell viability data, which are given here for 25 molecules.

This experiment relates to HCT116. The settings on record: 72 h. A digest of the protocol: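 HCT116 cells were seeded at 250 per well in 1536-well plates with 5 h allowed for attachment. CellTiter-Glo luminescence was normalized against vehicle (0%) and positive control (-100%) before pattern correction. The IC50 and maximal efficacy figures derive from four-parameter Hill fits.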

Where a name gives a salt, the structure may show the parent alone.

As for `C=C[C@]1(C)C[C@@H](OC(=O)CS[C@@H]2C[C@H]3CC[C@@H](C2)N3C)[C@]2(C)[C@H](C)CC[C@]3(CCC(=O)[C@H]32)[C@@H](C)[C@@H]1O` [Retapamulin], the IC50 cell viability (ICRF193 0 nM) was > 45.8 µM and the IC50 cell viability (ICRF193 200 nM) was > 45.8 µM.
On to `CCCCCCCCCCCCCCCC(=O)OC/C=C(C)/C=C/C=C(C)/C=C/C1=C(C)CCCC1(C)C` [Retinyl palmitate], for which the IC50 cell viability is > 45.8 µM (ICRF193 0 nM) and > 45.8 µM (ICRF193 200 nM).
Regarding `NC(=O)c1ncn([C@@H]2O[C@H](CO)[C@@H](O)[C@H]2O)n1` [Ribavirin], the IC50 cell viability is > 45.8 µM (ICRF193 0 nM) and > 45.8 µM (ICRF193 200 nM).
In the case of `CN(C)C(=O)c1cc2cnc(Nc3ccc(N4CCNCC4)cn3)nc2n1C1CCCC1` [Ribociclib (LEE011)], the IC50 cell viability is, setting by setting: (ICRF193 0 nM) > 45.8 µM; (ICRF193 200 nM) > 45.8 µM.
On to `NC[C@H]1O[C@H](O[C@H]2[C@H](O[C@@H]3O[C@H](CO)[C@@H](O)[C@H]3O)[C@@H](O)[C@H](N)C[C@@H]2N)[C@H](N)[C@@H](O)[C@@H]1O` [Ribostamycin sulfate], for which the IC50 cell viability (ICRF193 0 nM) was > 45.8 µM and the IC50 cell viability (ICRF193 200 nM) is > 45.8 µM.
For `CO[C@H]1/C=C/O[C@@]2(C)Oc3c(C)c(O)c4c(c3C2=O)C2=NC3(CCN(CC(C)C)CC3)NC2=C(NC(=O)/C(C)=C\C=C\[C@H](C)[C@H](O)[C@@H](C)[C@@H](O)[C@@H](C)[C@H](OC(C)=O)[C@@H]1C)C4=O` [Rifabutin], the IC50 cell viability by setting is: (ICRF193 0 nM) > 45.8 µM; (ICRF193 200 nM) > 45.8 µM.
On to `CO[C@H]1/C=C/O[C@@]2(C)Oc3c(C)c(O)c4c(O)c(c(/C=N/N5CCN(C6CCCC6)CC5)c(O)c4c3C2=O)NC(=O)/C(C)=C\C=C\[C@H](C)[C@H](O)[C@@H](C)[C@@H](O)[C@@H](C)[C@H](OC(C)=O)[C@@H]1C` [Rifapentine], for which the IC50 cell viability (ICRF193 0 nM) was > 45.8 µM and the IC50 cell viability (ICRF193 200 nM) was > 45.8 µM.
Regarding `CO[C@H]1/C=C/O[C@@]2(C)Oc3c(C)c(O)c4c(O)c(c5c(nc6cc(C)ccn65)c4c3C2=O)NC(=O)/C(C)=C\C=C\[C@H](C)[C@H](O)[C@@H](C)[C@@H](O)[C@@H](C)[C@H](OC(C)=O)[C@@H]1C` [Rifaximin], the IC50 cell viability is > 45.8 µM (ICRF193 0 nM) and > 45.8 µM (ICRF193 200 nM).
Regarding `CC(N)C12CC3CC(CC(C3)C1)C2` (stereo not given) [Rimantadine], the IC50 cell viability was > 45.8 µM (ICRF193 0 nM) and > 45.8 µM (ICRF193 200 nM).
In the case of `CCC(=O)[C@@]1(C)[C@H](C)C[C@H]2[C@@H]3CCC4=CC(=O)C=C[C@]4(C)[C@H]3[C@@H](O)C[C@@]21C` [Rimexolone], the IC50 cell viability reads like this: (ICRF193 0 nM) > 45.8 µM; (ICRF193 200 nM) > 45.8 µM.
With `COC(=O)N(C)c1c(N)nc(-c2nn(Cc3ccccc3F)c3ncccc23)nc1N` [Riociguat], the IC50 cell viability reads like this: (ICRF193 0 nM) > 45.8 µM; (ICRF193 200 nM) > 45.8 µM.
Regarding `C[C@H]1CNCCCN1S(=O)(=O)c1cccc2cncc(F)c12` [Ripasudil], the IC50 cell viability is > 45.8 µM (ICRF193 0 nM) and > 45.8 µM (ICRF193 200 nM).
Turning to `CCCCCOc1ccc(C2SC(=O)NC2=O)cc1OCC` (stereo not given) [Risarestat], the IC50 cell viability reads like this: (ICRF193 0 nM) > 45.8 µM; (ICRF193 200 nM) > 45.8 µM.
As for `O=P(O)(O)C(O)(Cc1cccnc1)P(=O)(O)O` [Risedronate sodium], the IC50 cell viability reads like this: (ICRF193 0 nM) > 45.8 µM; (ICRF193 200 nM) > 45.8 µM.
In the case of `Cc1nc2n(c(=O)c1CCN1CCC(c3noc4cc(F)ccc34)CC1)CCCC2` [Risperidone], the IC50 cell viability runs as follows: (ICRF193 0 nM) > 45.8 µM; (ICRF193 200 nM) > 45.8 µM.
As for `CC(NCCc1ccc(O)cc1)C(O)c1ccc(O)cc1` (stereo not given) [Ritodrine hydrochloride], the IC50 cell viability reads like this: (ICRF193 0 nM) > 45.8 µM; (ICRF193 200 nM) > 45.8 µM.
As to `O=C(NC[C@H]1CN(c2ccc(N3CCOCC3=O)cc2)C(=O)O1)c1ccc(Cl)s1` [Rivaroxaban], the IC50 cell viability by setting is: (ICRF193 0 nM) > 45.8 µM; (ICRF193 200 nM) > 45.8 µM.
`CCN(C)C(=O)Oc1cccc([C@H](C)N(C)C)c1` [Rivastigmine tartrate]: the IC50 cell viability runs as follows: (ICRF193 0 nM) > 45.8 µM; (ICRF193 200 nM) > 45.8 µM.
With `CN(C)CCc1c[nH]c2ccc(Cn3cncn3)cc12` [Rizatriptan Benzoate], the IC50 cell viability (ICRF193 0 nM) is > 45.8 µM and the IC50 cell viability (ICRF193 200 nM) is > 45.8 µM.
Turning to `Cc1cccc(C)c1N(CCCc1cccnc1)C(=O)C(C)N` (stereo not given) [Ro 22-9194], the IC50 cell viability is, setting by setting: (ICRF193 0 nM) > 45.8 µM; (ICRF193 200 nM) > 45.8 µM.
Take `N=C(N/N=C/c1ccc(Cl)cc1)N/N=C/c1ccc(Cl)cc1` [Robenidine]: the IC50 cell viability by setting is: (ICRF193 0 nM) > 45.8 µM; (ICRF193 200 nM) > 45.8 µM.
Consider `C=CC[N+]1([C@H]2C[C@H]3[C@@H]4CC[C@H]5C[C@H](O)[C@@H](N6CCOCC6)C[C@]5(C)[C@H]4CC[C@]3(C)[C@H]2OC(C)=O)CCCC1` [Rocuronium bromide], for which the IC50 cell viability runs as follows: (ICRF193 0 nM) > 45.8 µM; (ICRF193 200 nM) > 45.8 µM.
For the molecule `CS(=O)(=O)c1ccc(C2=C(c3ccccc3)C(=O)OC2)cc1` [Rofecoxib], the IC50 cell viability reads like this: (ICRF193 0 nM) > 45.8 µM; (ICRF193 200 nM) > 45.8 µM.
For `O=C(Nc1c(Cl)cncc1Cl)c1ccc(OC(F)F)c(OCC2CC2)c1` [Roflumilast], the IC50 cell viability (ICRF193 0 nM) was > 45.8 µM and the IC50 cell viability (ICRF193 200 nM) was > 45.8 µM.
Turning to `COc1ccc(C2CNC(=O)C2)cc1OC1CCCC1` (stereo not given) [Rolipram], the IC50 cell viability is, setting by setting: (ICRF193 0 nM) > 45.8 µM; (ICRF193 200 nM) > 45.8 µM.
